pIC50: −log10 of the molar value. Read-outs that look alike come from different tables or passages of the source.
Experiments:
His6-TEV-PPARγ-(234-505) = target: T1, His6-TEV-PPARγ-(234-505) (Homo sapiens, UniProt P37231); experiment: TR-FRET Assay to Measure Co-R Peptide Recruitment to PPARγ; type: biochemical; settings: Co-R peptide (SMRT-ID2) recruitment; top final concentration 20 μM; read-out: TR-FRET i-Ag; AC50
T1 construct: The His6-TEV-PPARγ-(234-505) protein for assay was expressed and purified; TEV cleavage site (N); made in house
T1 sequence (P37231 234-505): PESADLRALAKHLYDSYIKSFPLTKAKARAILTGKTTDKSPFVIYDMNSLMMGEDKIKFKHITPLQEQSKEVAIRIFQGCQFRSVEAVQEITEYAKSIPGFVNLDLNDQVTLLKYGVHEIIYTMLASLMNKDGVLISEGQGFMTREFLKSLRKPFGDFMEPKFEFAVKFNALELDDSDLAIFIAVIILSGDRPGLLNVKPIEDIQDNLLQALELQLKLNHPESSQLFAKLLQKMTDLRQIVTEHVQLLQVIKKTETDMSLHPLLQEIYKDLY
In short: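 Corepressor recruitment is measured by adding terbium-labeled anti-His antibody and FITC SMRT-ID2 peptide, at 5 and 200 nM final, after a 20-minute room-temperature protein–compound incubation. After one further hour, signal is converted to percent response between DMSO and 500 nM T0070907 wells.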

UM-UC-9 engineered cells = experiment: Cell proliferation / short-term viability assay, CellTiter-Glo 144 h; type: cell-based, human; settings: read-out: CTGlo 144 h UMUC9.5, G150
In short: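 Viability read by CellTiter-Glo 2.0 luminescence at day 7 versus DMSO-vehicle wells and a T0 plate measured on day 0. Cells: UM-UC-9 engineered assay-ready stocks, 500 cells/well in high-glucose DMEM with 10% FBS, 37° C, 5% CO2.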

Row | Structure (SMILES) | AC50 (His6-TEV-PPARγ-(234-505)) | pIC50 (UM-UC-9 engineered cells; Homo sapiens, UM-UC-9, 144 h) | pIC50 (UM-UC-9 engineered cells)
1 | COc1cc(-c2cc(C(=O)N3[C@@H]4CC[C@H]3C[C@H](C(=O)NC3CCC5(CC3)OCC(F)C5F)C4)n[nH]2)c(F)cn1 (stereo partly drawn) [Example 319, (1R,3s,5S)—N-(3,41-difluoro-1-oxaspiro[4.5]decan-8-yl)-8-(5-(5-fluoro-2-methoxypyridin-4-yl)-1H-pyrazole-3-carbonyl)-8-azabicyclo[3.2.1]octane-3-carboxamide] | 124 nM | 6.64 | 
2 | COc1cc(-c2cc(C(=O)N3CCC(C(=O)NCc4cccc(Cl)c4)C(F)C3)n[nH]2)c(Cl)cn1 (mixture of isomers) [Example 177, 1-(5-(5-chloro-2-methoxypyridin-4-yl)-1H-pyrazole-3-carbonyl)-N-(3-chlorobenzyl)-3-fluoropiperidine-4-carboxamide] | 29.8 nM | 7.16 | 
3 | COc1cc(-c2cc(C(=O)N3CCC(C(=O)NCc4cc(C(F)F)on4)CC3)n[nH]2)c(Cl)cn1 [Example 225, 1-(5-(5-chloro-2-methoxypyridin-4-yl)-1H-pyrazole-3-carbonyl)-N-((5-(difluoromethyl)isoxazol-3-yl)methyl)piperidine-4-carboxamide] | 327 nM | 5.76 | 
4 | COc1cc(-c2cc(C(=O)N3CCC(C(=O)NCc4ncccc4Cl)CC3)n[nH]2)c(Cl)cn1 [Example 140, 1-(5-(5-chloro-2-methoxypyridin-4-yl)-1H-pyrazole-3-carbonyl)-N-((3-chloropyridin-2-yl)methyl)piperidine-4-carboxamide] | 85.4 nM | 6.20 | 
5 | CC[C@H]1CC[C@@H](NC(=O)C2CCN(C(=O)c3cc(-c4ccnc(OC)c4)[nH]n3)CC2)CC1 (single isomer, unassigned) [Example 108-A, N-((1s,4s)-4-ethylcyclohexyl)-1-(5-(2-methoxypyridin-4-yl)-1H-pyrazole-3-carbonyl)piperidine-4-carboxamide] | 160 nM | 6.17 | 
6 | COc1cc(-c2cc(C(=O)N3CCC(C(=O)NC4[C@@H]5CCC[C@H]4CC5)CC3)n[nH]2)c(F)cn1 (mixture of isomers) [Example 165, N-(bicyclo[3.2.1]octan-8-yl)-1-(5-(5-fluoro-2-methoxypyridin-4-yl)-1H-pyrazole-3-carbonyl)piperidine-4-carboxamide] | 179 nM | 6.36 | 
7 | COc1cc(-c2cc(C(=O)N3[C@@H]4CC[C@H]3C[C@H](C(=O)NC3CCC5(CC3)OCC5C(F)(F)F)C4)n[nH]2)c(F)cn1 (some centres unmarked) [Example 318] | 340 nM | 6.43 | 
8 | COc1cc(-c2cc(C(=O)N3CCC(C(=O)NCc4n[nH]c5ccccc45)CC3)n[nH]2)c(Cl)cn1 [Example 201, N-((1H-indazol-3-yl)methyl)-1-(5-(5-chloro-2-methoxypyridin-4-yl)-1H-pyrazole-3-carbonyl)piperidine-4-carboxamide] | 77.5 nM | 6.77 | 
9 | COc1cc(-c2cc(C(=O)N3C4COCC3CC(C(=O)N[C@H]3CC[C@@](O)(C(F)(F)F)CC3)C4)n[nH]2)c(F)cn1 (some centres unmarked) [Example 282, 9-(5-(5-fluoro-2-methoxypyridin-4-yl)-1H-pyrazole-3-carbonyl)-N-((1r,4r)-4-hydroxy-4-(trifluoromethyl)cyclohexyl)-3-oxa-9-azabicyclo[3.3.1]nonane-7-carboxamide] | 59 nM | 6.53 | 
10 | COc1cc(-c2cc(C(=O)N3CCC(C(=O)NCc4ccc(C(F)(F)F)cn4)CC3)n[nH]2)c(Cl)cn1 [Example 139, 1-(5-(5-chloro-2-methoxypyridin-4-yl)-1H-pyrazole-3-carbonyl)-N-((5-(trifluoromethyl)pyridin-2-yl)methyl)piperidine-4-carboxamide] | 336 nM | 5.75 | 
11 | COc1cc(-c2cc(C(=O)N3CCC(C(=O)NCC4(C)OCCCO4)CC3)n[nH]2)c(Cl)cn1 [Example 216, 1-(5-(5-chloro-2-methoxypyridin-4-yl)-1H-pyrazole-3-carbonyl)-N-((2-methyl-1,3-dioxan-2-yl)methyl)piperidine-, 1-carboxamide] | 697 nM | 5.51 | 

Further lines, with some results ahead:

Row | AC50 (His6-TEV-PPARγ-(234-505)) | Structure (SMILES) | pIC50 (UM-UC-9 engineered cells; Homo sapiens, UM-UC-9, 144 h) | pIC50 (UM-UC-9 engineered cells)
12 | 244 nM | COc1cc(-c2cc(C(=O)N3CCC(C(=O)N[C@H]4CC[C@@](O)(C(F)(F)F)CC4)C[C@@H]3C(F)(F)F)n[nH]2)c(F)cn1 (mixture of isomers) [Example 368, (2R,4R)-1-(5-(5-fluoro-2-methoxypyridin-4-yl)-1H-pyrazole-3-carbonyl)-N-((1r,4R)-4-hydroxy-4-(trifluoromethyl)cyclohexyl)-2-(trifluoromethyl)piperidine-4-carboxamide and (2R,4S)-1-(5-(5-fluoro-2-methoxypyridin-4-yl)-1H-pyrazole-3-carbonyl)-N-((1r,4S)-4-hydroxy-4-(trifluoromethyl)cyclohexyl)-2-(trifluoromethyl)piperidine-4-carboxamide] | 6.30 | 
13 | 182 nM | COc1cc(-c2cc(C(=O)N3CCC(C(=O)NC4c5ccccc5OCC4OC)CC3)n[nH]2)c(Cl)cn1 (mixture of isomers) [Example 252, 1-(5-(5-chloro-2-methoxypyridin-4-yl)-1H-pyrazole-3-carbonyl)-N-(3-methoxychroman-4-yl)piperidine-4-carboxamide] | 5.94 | 
14 | 63.3 nM | COc1cc(-c2cc(C(=O)N3CCC(C(=O)NCc4cccc(Cl)c4)CC3(C)C)n[nH]2)c(Cl)cn1 (racemic) [Example 255] | 6.82 | 
15 | 947 nM | COc1cc(-c2cc(C(=O)N3CCC(C(=O)NC4CN(C)Cc5ccccc54)CC3)n[nH]2)c(Cl)cn1 (racemic) [Example 227, 1-(5-(5-chloro-2-methoxypyridin-4-yl)-1H-pyrazole-3-carbonyl)-N-(2-methyl-1,2,3,4-tetrahydroisoquinolin-4-yl)piperidine-4-carboxamide] | 5.22 | 
16 | 10.8 nM | COc1cnc(CNC(=O)[C@H]2CCN(C(=O)c3cc(-c4cc(OC)ncc4F)[nH]n3)C3(CC3)C2)c(Cl)c1 [Example 402, (S)—N((3-chloro-5-methoxypyridin-2-yl)methyl)-4-(5-(5-fluoro-2-methoxypyridin-4-yl)-1H-pyrazole-3-carbonyl)-4-azaspiro[2.5]octane-7-carboxamide] | 8.54 | 
17 | 1320 nM | CO[C@]1(C(F)(F)F)CC[C@H](NC(=O)[C@@H]2CCN(C(=O)c3cc(-c4cc(C)ncn4)[nH]n3)C3(CC3)C2)CC1 (single isomer, unassigned) [Example 309-D] | 5.43 | 
18 | 0.7 nM | COc1cc(-c2cc(C(=O)N3CC[C@H](C(=O)Nc4cnn5ccc(C#N)nc45)CC34CC4)n[nH]2)c(F)cn1 [Example 487, (S)—N-(5-cyanopyrazolo[1,5-a]pyrimidin-3-yl)-4-(5-(5-fluoro-2-methoxypyridin-4-yl)-1H-pyrazole-3-carbonyl)-4-azaspiro[2.5]octane-7-carboxamide] | 8.62 | 
19 | 756 nM | O=C(NC1CCC(O)(C(F)(F)F)CC1)C1CCN(C(=O)c2cc(-c3cc(Cl)ncc3F)[nH]n2)C2(CC2)C1 (single isomer, unassigned) [Example 529-A] |  | 5.26
20 | 516 nM | COc1cc(-c2cc(C(=O)N3CCC(C(=O)NCc4cnc5c(cnn5C)c4)CC3)n[nH]2)c(Cl)cn1 [Example 232, 1-(5-(5-chloro-2-methoxypyridin-4-yl)-1H-pyrazole-3-carbonyl)-N-((1-methyl-1H-pyrazolo[3,4-b]pyridin-5-yl)methyl)piperidine-4-carboxamide] | 5.67 | 
21 | 0.6 nM | COc1cc(-c2cc(C(=O)N3CC[C@H](C(=O)Nc4cnn5ccc(C(C)O)nc45)CC34CC4)n[nH]2)c(F)cn1 (single isomer, unassigned) [Example 445-A] |  | 7.81
22 | 2.3 nM | Cc1cc(-c2cc(C(=O)N3CC[C@H](C(=O)N[C@H]4CC[C@@](O)(C(F)(F)F)CC4)CC34CC4)n[nH]2)c(F)cn1 (single isomer, unassigned) [Example 287-A] | 8.62 | 
23 | 161 nM | COc1cc(-c2cc(C(=O)N3CC[C@H](C(=O)NC4CCN(CC(C)(C)O)C4)CC34CC4)[nH]n2)c(F)cn1 (stereo partly drawn) [Example 345-A, (S)-4-(3-(5-Fluoro-2-methoxypyridin-4-yl)-1H-pyrazole-5-carbonyl)-N-(1-(2-hydroxy-2-methylpropyl)pyrrolidin-3-yl)-4-azaspiro[2,5]octane-7-carboxamide] | 6.35 | 
24 | 3.8 nM | COc1cc(-c2cc(C(=O)N3CC[C@H](C(=O)NCc4ncccc4C(F)(F)F)CC34CC4)[nH]n2)c(F)cn1 [Example 510, (S)-4-(3-(5-fluoro-2-methoxypyridin-4-yl)-1H-pyrazole-5-carbonyl)-N-((3-(trifluoromethyl)pyridin-2-yl)methyl)-4-azaspiro[2.5]octane-7-carboxamide] | 8.74 | 
25 | 88.7 nM | COc1cc(-c2cc(C(=O)N3CC[C@H](C(=O)NC4CCN(CC5(O)COC5)C4)CC34CC4)n[nH]2)c(F)cn1 (single isomer, unassigned) [Example 454-A] |  | 5.75
